Measured values from US20190364896A1, “SYNERGISTIC WEED CONTROL FROM APPLICATIONS OF PYRIDINE CARBOXYLIC ACID HERBICIDES AND ALS INHIBITORS” (Dow AgroSciences LLC, priority 2014, published 2019).

Experiments:
[1] = tested on: thistle (Cirsium arvense, CIRAR); assay: Postemergence herbicidal activity, greenhouse trial (visual injury 0-100%); type: in vivo
Protocol: (§1) Seeds of the desired test plant species were planted in Sun Gro MetroMix® 306 planting mixture, which typically has a pH of 6.0 to 6.8 and an organic matter content of about 30 percent, in plastic pots with a surface area of 103.2 square centimeters (cm^2). […] The plants were grown for 7-36 days (d) in a greenhouse with an approximate 14-hour (h) photoperiod which was maintained at about 23° C. during the day and 22° C. during the night. Nutrients and water were added on a regular basis and supplemental lighting was provided with overhead metal halide 1000-Watt lamps as necessary. The plants were employed for testing when they reached the second or third true leaf stage.
(§2) Weighed amounts of technical or formulated material (emulsifiable concentrate (EC) or soluble concentrate (SL)) were dissolved in a volume of 97:3 volume per volume (v/v) acetone/dimethyl sulfoxide (DMSO) to stock solutions. […] The concentrated stock solutions were diluted with an aqueous mixture of 1.5% v/v of Agri-dex crop oil concentrate to provide the appropriate application rates. Compound requirements are based upon a 12 milliliter (mL) application volume at a rate of 187 liters per hectare (L/ha). Spray solutions of the experimental compound mixtures were prepared by adding the stock solutions to the appropriate amount of dilution solution to form a 12 mL spray solution in two-way combinations. Formulated compounds were applied to the plant material with an overhead Mandel track sprayer equipped with 8002E nozzles calibrated to deliver 187 L/ha over an application area of 0.503 square meters (m^2) at a spray height of 18 inches (43 centimeters (cm)) above average plant canopy. Control plants were sprayed in the same manner with the solvent blank. Application rates for component (a) are in g ae/ha, and application rates for component (b) are in g ai/ha.
(§3) The treated plants and control plants were placed in a greenhouse as described above and watered by sub-irrigation to prevent wash-off of the test compounds. After 20-22 d, the condition of the test plants as compared with that of the control plants was determined visually and scored on a scale of 0 to 100 percent where 0 corresponds to no injury and 100 corresponds to complete kill. Colby's equation was used to determine the herbicidal effects expected from the mixtures. […]
(§4) Weighed amounts of technical material were dissolved in a volume of 97:3 volume per volume (v/v) acetone/dimethyl sulfoxide (DMSO) to stock solutions. […] The concentrated stock solutions were diluted with an aqueous mixture of 1.5% v/v of Agri-dex crop oil concentrate to provide the appropriate application rates. Compound requirements are based upon a 12 milliliter (mL) application volume at a rate of 187 liters per hectare (L/ha).

[2] = tested on: wild pansy (Viola tricolor, VIOTR); assay: as above; type: in vivo
Protocol: as §1, §2
(§5) The treated plants and control plants were placed in a greenhouse as described above and watered by sub-irrigation to prevent wash-off of the test compounds. After 20-22 d, the condition of the test plants as compared with that of the control plants was determined visually and scored on a scale of 0 to 100 percent where 0 corresponds to no injury and 100 corresponds to complete kill. The condition of the test plants was compared with that of the control plants as determined visually and scored on a scale of 0 to 100 percent, where 0 corresponds to no injury and 100 corresponds to complete kill. Colby's equation was used to determine the herbicidal effects expected from the mixtures.
[…] Compound 2 was formulated as an EC and was combined with florasulam or pyroxsulam. The mixtures were applied to winter wheat (TRZAW), common rice (ORYSA), maize (ZEAMX), and the phytotoxicity of the herbicidal compositions was measured. In addition, the efficacy of the herbicidal compositions on blackgrass (Alopecurus myosuroides, ALOMY), pigweed (Amaranthus retrollexus, AMARE), wild oat (Avena fatua, AVEFA), common lambsquarters (Chenopodium album L., CHEAL), thistle (Cirsium arvense CIRAR), nutsedge (Cyperus esculentus, CYPES), barnyardgrass (Echinochloa crus-galli, ECHCG), poinsettia (Euphorbia heterophylla, EPHHL), ivyleaf morning-glory (Ipomoea hederacea, IPOHE), kochia (Kochia scoparia, KCHSC), wild buckwheat (Polygonum convolvulus, POLCO), grain sorghum (Sorghum vulgare, SORVU), chickweed (Stellaria media, STEME), wild pansy (Viola tricolor, VIOTR), was evaluated.
as §4

[3] = tested on: common rice (Oryza sativa, ORYSA); assay: Postemergence crop injury (phytotoxicity), greenhouse trial (visual injury 0-100%)
Protocol: as §1, §2, §5
(§6) Compound 1 was formulated as an EC and was combined with florasulam, cloransulam, diclosulam, flumetsulam, penoxsulam, or pyroxsulam. Compound 2 was formulated as an EC and was combined with florasulam or pyroxsulam. The mixtures were applied to winter wheat (TRZAW), common rice (ORYSA), maize (ZEAMX), and the phytotoxicity of the herbicidal compositions was measured. In addition, the efficacy of the herbicidal compositions on blackgrass (Alopecurus myosuroides, ALOMY), pigweed (Amaranthus retrollexus, AMARE), wild oat (Avena fatua, AVEFA), common lambsquarters (Chenopodium album L., CHEAL), thistle (Cirsium arvense CIRAR), nutsedge (Cyperus esculentus, CYPES), barnyardgrass (Echinochloa crus-galli, ECHCG), poinsettia (Euphorbia heterophylla, EPHHL), ivyleaf morning-glory (Ipomoea hederacea, IPOHE), kochia (Kochia scoparia, KCHSC), wild buckwheat (Polygonum convolvulus, POLCO), grain sorghum (Sorghum vulgare, SORVU), chickweed (Stellaria media, STEME), wild pansy (Viola tricolor, VIOTR), was evaluated.
as §4, with “(L/ha). […]” for “(L/ha).”

[4] = tested on: kochia (Kochia scoparia, KCHSC); assay: Postemergence herbicidal activity, greenhouse trial (visual injury 0-100%); type: in vivo
Protocol: as §1, §2, §3, §4

[5] = tested on: spring rape (Brassica napus, BRSNN); assay: as above; type: in vivo; settings: BRSNN; chlorsulfuron 2.2 g ai/ha
[6] = tested on: nutsedge (Cyperus esculentus, CYPES); assay: as above; type: in vivo; settings: CYPES
Protocol: as §1
as §2, with “technical” for “technical or formulated”, “material” for “material (emulsifiable concentrate (EC) or soluble concentrate (SL))”
as §3, §2

[7] = tested on: barnyardgrass (Echinochloa crus-galli, ECHCG); assay: as above; type: in vivo
Protocol: as §1, §2, §5, §6
as §4, with “(L/ha). […]” for “(L/ha).”

[8] = tested on: common lambsquarters (Chenopodium album L., CHEAL); assay: as above; type: in vivo; settings: Chenopodium album, post-emergence, CHEAL; chlorsulfuron 2.2 g ai/ha; read-out: % visual injury Obs
Protocol: as §1, §2, §5, §6
as §4, with “(L/ha). […]” for “(L/ha).”

[9] = tested on: wild oat (Avena fatua, AVEFA); assay: as above; type: in vivo; settings: 35 g ai/ha
Protocol: as §1, §2, §5, §6
as §4, with “(L/ha). […]” for “(L/ha).”

[10] = tested on: ivyleaf morning-glory (Ipomoea hederacea, IPOHE); assay: as above; type: in vivo
Protocol: as §1, §2, §5, §6
as §4, with “(L/ha). […]” for “(L/ha).”

[11] = tested on: giant foxtail (Setaria faberi, SETFA); assay: as above; type: in vivo
[12] = tested on: blackgrass (Alopecurus myosuroides, ALOMY); assay: as above; type: in vivo; settings: 280 g ai/ha
Protocol: as §1, §2, §5, §6
as §4, with “(L/ha). […]” for “(L/ha).”

[13] = tested on: large crabgrass (Digitaria sanguinalis, DIGSA); assay: as above; type: in vivo
[14] = tested on: chickweed (Stellaria media, STEME); assay: as above; type: in vivo
Protocol: as §1, §2, §5, §6
as §4, with “(L/ha). […]” for “(L/ha).”

[15] = tested on: winter rape (Brassica napus, BRSNW); assay: as above; type: in vivo; settings: BRSNW; nicosulfuron 17.5 g ai/ha
maize (Zea mays, ZEAMX) = assay: Postemergence crop injury (phytotoxicity), greenhouse trial (visual injury 0-100%); settings: ZEAMX; nicosulfuron 17.5 g ai/ha
Protocol: as §1, §2, §5, §6
as §4, with “(L/ha). […]” for “(L/ha).”

[16] = tested on: pigweed (Amaranthus retroflexus, AMARE); assay: Postemergence herbicidal activity, greenhouse trial (visual injury 0-100%); type: in vivo; settings: Amaranthus retroflexus, post-emergence, AMARE; orthosulfamuron 15 g ai/ha; read-out: % visual injury Obs
Protocol: as §1, §2, §3, §4

[17] = tested on: winter wheat (Triticum aestivum, TRZAW); assay: Postemergence crop injury (phytotoxicity), greenhouse trial (visual injury 0-100%); settings: TRZAW
Protocol: as §1
as §2, with “technical” for “technical or formulated”, “material” for “material (emulsifiable concentrate (EC) or soluble concentrate (SL))”
as §5
Compound 2 was combined with florasulam and applied to winter wheat (TRZAW) and the phytotoxicity of the herbicidal composition was measured. In addition, the efficacy of the herbicidal composition on poinsettia (Euphorbia heterophylla, EPHHL) and […] (Cyperus esculentus, CYPES) was evaluated.
as §4, with “technical or formulated” for “technical”, “material (emulsifiable concentrate (EC) or soluble concentrate (SL))” for “material”, “(L/ha). Spray solutions of the experimental compound mixtures were prepared by adding the stock solutions to the appropriate amount of dilution solution to form a 12 mL spray solution in two-way combinations. […]” for “(L/ha).”

[18] = tested on: velvetleaf (Abutilon theophrasti, ABUTH); assay: Postemergence herbicidal activity, greenhouse trial (visual injury 0-100%); type: in vivo; settings: 15 g ai/ha

Compound: COc1cc(OC)nc(Oc2cccc(Oc3nc(OC)cc(OC)n3)c2C(=O)[O-])n1.[Na+] [Bispyribac-sodium]
- % visual injury Obs ([1]; 10 g ai/ha): 95%
- % visual injury Obs ([2]; 10 g ai/ha): 80%
- % visual injury Obs ([3]; 10 g ai/ha): 10%

Compound: COc1nc(C)nc(NC(=O)NS(=O)(=O)c2ccccc2Cl)n1 [Chlorsulfuron, chlorsulfuron]
- pest or weed control ([1]; Cirsium arvense, post-emergence, CIRAR, chlorsulfuron 2.2 g ai/ha, read-out: % visual injury Obs): 90%
- pest or weed control ([4]; Bassia scoparia, post-emergence, KCHSC, chlorsulfuron 2.2 g ai/ha, read-out: % visual injury Obs): 50%
- % visual injury Obs [5]: 93%
- pest or weed control ([6]; Cyperus, post-emergence, chlorsulfuron 2.2 g ai/ha, read-out: % visual injury Obs): 0%
- pest or weed control ([7]; Echinochloa crus-galli, post-emergence, ECHCG, chlorsulfuron 2.2 g ai/ha, read-out: % visual injury Obs): 0%
- pest or weed control [8]: 90%
- pest or weed control ([2]; Viola tricolor, post-emergence, VIOTR, chlorsulfuron 2.2 g ai/ha, read-out: % visual injury Obs): 60%

Compound: Cc1cnc(C2=NC(C)(C(C)C)C(=O)N2)c(C(=O)O)c1 (centres unmarked) [Imazapic, imazapic]
- pest or weed control at 35 g/ha ([7]; Echinochloa crus-galli, post-emergence, 35 g ai/ha, read-out: % visual injury Obs): 93%
- % visual injury Obs [9]: 95%
- pest or weed control at 35 g/ha ([10]; Ipomoea hederacea, post-emergence, 35 g ai/ha, read-out: % visual injury Obs): 75%
- pest or weed control at 35 g/ha ([2]; Viola tricolor, post-emergence, 35 g ai/ha, read-out: % visual injury Obs): 10%
- % visual injury Obs ([11]; 35 g ai/ha): 90%

Compound: CC(C)C1(C)N=C(c2ncccc2C(=O)O)NC1=O (centres unmarked) [Imazapyr, imazapyr]
- % visual injury Obs [12]: 97%
- pest or weed control at 280 g/ha ([10]; Ipomoea hederacea, post-emergence, 280 g ai/ha, read-out: % visual injury Obs): 85%
- pest or weed control at 280 g/ha ([2]; Viola tricolor, post-emergence, 280 g ai/ha, read-out: % visual injury Obs): 80%
- % visual injury Obs ([13]; 280 g ai/ha): 95%

Compound: COc1cc(OC)nc(NC(=O)NS(=O)(=O)c2ncccc2C(=O)N(C)C)n1 [Nicosulfuron, nicosulfuron]
- pest or weed control at 17.5 g/ha ([4]; Bassia scoparia, post-emergence, KCHSC, nicosulfuron 17.5 g ai/ha, read-out: % visual injury Obs): 5%
- pest or weed control at 17.5 g/ha ([10]; Ipomoea hederacea, post-emergence, IPOHE, nicosulfuron 17.5 g ai/ha, read-out: % visual injury Obs): 30%
- pest or weed control at 17.5 g/ha ([14]; Stellaria media, post-emergence, STEME, nicosulfuron 17.5 g ai/ha, read-out: % visual injury Obs): 30%
- pest or weed control at 17.5 g/ha ([2]; Viola tricolor, post-emergence, VIOTR, nicosulfuron 17.5 g ai/ha, read-out: % visual injury Obs): 40%
- % visual injury Obs [15]: 85%
- % visual injury Obs ([11]; SETFA, nicosulfuron 17.5 g ai/ha): 80%
- % visual injury Obs (maize (Zea mays, ZEAMX)): 0%

Compound: COc1cc(OC)nc(NC(=O)NS(=O)(=O)Nc2ccccc2C(=O)N(C)C)n1 [Orthosulfamuron, orthosulfamuron]
- pest or weed control at 15 g/ha ([4]; Bassia scoparia, post-emergence, KCHSC, orthosulfamuron 15 g ai/ha, read-out: % visual injury Obs): 0%
- pest or weed control at 15 g/ha [16]: 10%
- pest or weed control at 15 g/ha ([10]; Ipomoea hederacea, post-emergence, IPOHE, orthosulfamuron 15 g ai/ha, read-out: % visual injury Obs): 90%
- % visual injury Obs ([3]; ORYSA, orthosulfamuron 15 g ai/ha): 0%
- % visual injury Obs ([17]; orthosulfamuron 15 g ai/ha): 0%

Compound: metsulfuron
- % visual injury Obs ([1]; CIRAR, metsulfuron 1.5 g ai/ha): 90%
- % visual injury Obs ([4]; KCHSC, metsulfuron 1.5 g ai/ha): 70%
- % visual injury Obs ([6]; metsulfuron 1.5 g ai/ha): 50%
- % visual injury Obs ([7]; ECHCG, metsulfuron 1.5 g ai/ha): 0%
- % visual injury Obs ([3]; ORYSA, metsulfuron 1.5 g ai/ha): 20%
- % visual injury Obs ([17]; metsulfuron 1.5 g ai/ha): 0%

Compound: pyribenzoxim
- % visual injury Obs ([4]; 15 g ai/ha): 0%
- % visual injury Obs ([10]; 15 g ai/ha): 70%
- % visual injury Obs ([14]; 15 g ai/ha): 40%
- % visual injury Obs [18]: 10%
- % visual injury Obs ([11]; 15 g ai/ha): 70%
- % visual injury Obs ([13]; 15 g ai/ha): 0%
- % visual injury Obs ([3]; 15 g ai/ha): 0%
